Starred links: 1 amine or outer side, 2 acyl side, 3 side chain; linkers in the order of their positions; H or OH if unused. Positions of bridges follow the written chain, without caps; N, C: chain ends. Non-standard residues stand in square brackets, D forms with d. Residues, ends and D or L forms follow the SMILES beside them. ξ: configuration not given here. *: point of attachment. X12 = O=C(O)CCCCCCCCCCCCCCCCCCC(=O)N[C@@H](CCC(=O)NCCCOCCOCCOCCCN*)C(=O)O; X4 = O=C(O)CCCCCCCCCCCCCCCCC(=O)N[C@@H](CC(=O)NCCCOCCOCCOCCCN*)C(=O)O; X18 = O=C(O)CCCCCCCCCCCCCCC(=O)N[C@@H](CC(=O)NCCCOCCOCCOCCCN*)C(=O)O; X11 = O=C(O)CCCCCCCCCCCCC(=O)N[C@@H](CCC(=O)NCCCOCCOCCOCCCN*)C(=O)O; Trp(1-CH2COOH) = N[C@@H](Cc1cn(CC(=O)O)c2ccccc12)C(=O)O; d(cisHyp) = O=C(O)[C@H]1C[C@@H](O)CN1; X19 = O=C(C1C[C@H](O)CN1[*:1])[*:2]; ξPro(4R-OH) = O=C(O)C1C[C@@H](O)CN1; Hyp = O=C(O)[C@@H]1C[C@@H](O)CN1; NMeNle = CCCC[C@H](NC)C(=O)O; NMeA = CN[C@@H](C)C(=O)O; Dab = NCC[C@H](N)C(=O)O; Dap = NC[C@H](N)C(=O)O
These compounds were tested against T1, PD-L1 (Homo sapiens, UniProt Q9NZQ7) (assay: PD-1/PD-L1 Homogenous Time-Resolved Fluorescence (HTRF) binding assay (PD-1-Ig/PD-L1-His)). Settings: inhibition of PD-1-Ig binding to PD-L1-TVMV-His; value given as range class; read-out: HTRF IC50.
T1 construct: hPDL1(19-239)-TVMV-His; made in house; host or cells: HEK293T
How it was run: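 Inhibitors pre-incubated 15 min with PD-L1-His (10 nM final), then PD-1-Ig (20 nM final) added for 15 min in dPBS/0.1% BSA/0.05% Tween-20. Eu-cryptate anti-Ig (1 nM) and APC anti-His (20 nM) added, 30 min equilibration, 665/620 nm HTRF ratio read.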

T1 sequence (Q9NZQ7 with tags, fused parts or gaps): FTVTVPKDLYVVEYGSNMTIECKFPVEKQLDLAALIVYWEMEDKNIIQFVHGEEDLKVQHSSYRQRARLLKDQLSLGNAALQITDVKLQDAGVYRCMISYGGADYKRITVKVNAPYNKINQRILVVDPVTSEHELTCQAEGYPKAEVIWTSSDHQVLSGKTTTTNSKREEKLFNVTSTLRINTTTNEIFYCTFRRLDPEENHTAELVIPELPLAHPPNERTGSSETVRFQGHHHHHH

| SMILES | IC50 |
| --- | --- |
| CCCC[C@H]1C(=O)N(C)[C@@H](CCCC)C(=O)N[C@@H](CC(C)C)C(=O)N[C@H](C(=O)NCC(=O)N[C@@H](CCC(=O)NCCCOCCOCCOCCCNC(=O)C[C@H](NC(=O)CCCCCCCCCCCCCCC(=O)O)C(=O)O)C(=O)O)CSCC(=O)N[C@@H](Cc2ccc(O)cc2)C(=O)N(C)[C@@H](C)C(=O)N[C@@H](CC(N)=O)C(=O)N2CCC[C@@H]2C(=O)N[C@@H](CN)C(=O)N[C@@H](CC(C)C)C(=O)N2C[C@@H](O)CC2C(=O)N[C@@H](Cc2c[nH]c3ccccc23)C(=O)N[C@@H](CCN)C(=O)N[C@@H](Cc2cn(CC(=O)O)c3ccccc23)C(=O)N1C (stereo partly drawn) [Example 11243] ({CH2CO}-Y[NMeA]N[dP][Dap]L[X19]W[Dab][Trp(1-CH2COOH)][NMeNle][NMeNle]LCGE(X18)-OH; thioether N-14) | 100 to 1600 nM |
| CCCC[C@H]1C(=O)N(C)[C@@H](CCCC)C(=O)N[C@@H](CC(C)C)C(=O)N[C@@H](C(=O)N[C@@H](CC(=O)O)C(=O)N[C@@H](CC(=O)NCCCOCCOCCOCCCNC(=O)C[C@H](NC(=O)CCCCCCCCCCCCCCC(=O)O)C(=O)O)C(=O)O)CSCC(=O)N[C@@H](Cc2ccc(O)cc2)C(=O)N(C)[C@@H](C)C(=O)N[C@@H](CC(N)=O)C(=O)N2CCC[C@@H]2C(=O)N[C@@H](CN)C(=O)N[C@@H](CC(C)C)C(=O)N2C[C@@H](O)CC2C(=O)N[C@@H](Cc2c[nH]c3ccccc23)C(=O)N[C@@H](CCN)C(=O)N[C@@H](Cc2cn(CC(=O)O)c3ccccc23)C(=O)N1C (stereo partly drawn) [Example 11244] ({CH2CO}-Y[NMeA]N[dP][Dap]L[X19]W[Dab][Trp(1-CH2COOH)][NMeNle][NMeNle]L[dC]DD(X18)-OH; thioether N-14) | 100 to 1600 nM |
| CCCC[C@H]1C(=O)N(C)[C@@H](CCCC)C(=O)N[C@@H](CC(C)C)C(=O)N[C@@H](C(=O)N[C@@H](CC(=O)O)C(=O)N[C@@H](CCC(=O)NCCCOCCOCCOCCCNC(=O)C[C@H](NC(=O)CCCCCCCCCCCCCCC(=O)O)C(=O)O)C(=O)O)CSCC(=O)N[C@@H](Cc2ccc(O)cc2)C(=O)N(C)[C@@H](C)C(=O)N[C@@H](CC(N)=O)C(=O)N2CCC[C@@H]2C(=O)N[C@@H](CN)C(=O)N[C@@H](CC(C)C)C(=O)N2C[C@@H](O)CC2C(=O)N[C@@H](Cc2c[nH]c3ccccc23)C(=O)N[C@@H](CCN)C(=O)N[C@@H](Cc2cn(CC(=O)O)c3ccccc23)C(=O)N1C (stereo partly drawn) [Example 11245] ({CH2CO}-Y[NMeA]N[dP][Dap]L[X19]W[Dab][Trp(1-CH2COOH)][NMeNle][NMeNle]L[dC]DE(X18)-OH; thioether N-14) | 10 to 99 nM |
| CCCC[C@H]1C(=O)N(C)[C@@H](CCCC)C(=O)N[C@@H](CC(C)C)C(=O)N[C@H](C(=O)N[C@@H](CC(=O)O)C(=O)N[C@@H](CC(=O)NCCCOCCOCCOCCCNC(=O)CC[C@H](NC(=O)CCCCCCCCCCCCCCCCCCC(=O)O)C(=O)O)C(=O)O)CSCC(=O)N[C@@H](Cc2ccc(O)cc2)C(=O)N(C)[C@@H](C)C(=O)N[C@@H](CC(N)=O)C(=O)N2CCC[C@H]2C(=O)N[C@@H](CN)C(=O)N[C@@H](CC(C)C)C(=O)N2C[C@H](O)C[C@H]2C(=O)N[C@@H](Cc2c[nH]c3ccccc23)C(=O)N[C@@H](CCN)C(=O)N[C@@H](Cc2cn(CC(=O)O)c3ccccc23)C(=O)N1C [Example 11252] ({CH2CO}-Y[NMeA]NP[Dap]L[Hyp]W[Dab][Trp(1-CH2COOH)][NMeNle][NMeNle]LCDD(X12)-OH; thioether N-14) | 10 to 99 nM |
| CCCC[C@H]1C(=O)N(C)[C@@H](CCCC)C(=O)N[C@@H](CC(C)C)C(=O)N[C@H](C(=O)NCCCOCCOCCOCCCNC(=O)C[C@H](NC(=O)CCCCCCCCCCCCCCCCC(=O)O)C(=O)O)CSCC(=O)N[C@@H](Cc2ccc(O)cc2)C(=O)N(C)[C@@H](C)C(=O)N[C@@H](CC(N)=O)C(=O)N2CCC[C@H]2C(=O)N[C@@H](CN)C(=O)N[C@@H](CC(C)C)C(=O)N2C[C@H](O)C[C@H]2C(=O)N[C@@H](Cc2c[nH]c3ccccc23)C(=O)N[C@@H](CCN)C(=O)N[C@@H](Cc2cn(CC(=O)O)c3ccccc23)C(=O)N1C [Example 11258] ({CH2CO}-Y[NMeA]NP[Dap]L[Hyp]W[Dab][Trp(1-CH2COOH)][NMeNle][NMeNle]LC-X4; thioether N-14) | 10 to 99 nM |

The remaining lines, values ahead:

| IC50 | SMILES |
| --- | --- |
| 0.3 to 9.9 nM | CCCC[C@H]1C(=O)N(C)[C@@H](CCCC)C(=O)N[C@@H](CC(C)C)C(=O)N[C@H](C(=O)NCC(=O)N[C@@H](CC(=O)O)C(=O)N[C@@H](CCC(=O)NCCCOCCOCCOCCCNC(=O)CC[C@H](NC(=O)CCCCCCCCCCCCCCCCCCC(=O)O)C(=O)O)C(=O)O)CSCC(=O)N[C@@H](Cc2ccc(O)cc2)C(=O)N(C)[C@@H](C)C(=O)N[C@@H](CC(N)=O)C(=O)N2CCC[C@H]2C(=O)N[C@@H](CN)C(=O)N[C@@H](CC(C)C)C(=O)N2C[C@H](O)CC2C(=O)N[C@@H](Cc2c[nH]c3ccccc23)C(=O)N[C@@H](CCN)C(=O)N[C@@H](Cc2cn(CC(=O)O)c3ccccc23)C(=O)N1C (stereo partly drawn) [Example 11249] ({CH2CO}-Y[NMeA]NP[Dap]L[ξPro(4R-OH)]W[Dab][Trp(1-CH2COOH)][NMeNle][NMeNle]LCGDE(X12)-OH; thioether N-14) |
| 0.3 to 9.9 nM | CCCC[C@H]1C(=O)N(C)[C@@H](CCCC)C(=O)N[C@@H](CC(C)C)C(=O)N[C@H](C(=O)NCC(=O)N[C@@H](CC(=O)O)C(=O)N[C@@H](CC(=O)NCCCOCCOCCOCCCNC(=O)CC[C@H](NC(=O)CCCCCCCCCCCCCCCCCCC(=O)O)C(=O)O)C(=O)O)CSCC(=O)N[C@@H](Cc2ccc(O)cc2)C(=O)N(C)[C@@H](C)C(=O)N[C@@H](CC(N)=O)C(=O)N2CCC[C@H]2C(=O)N[C@@H](CN)C(=O)N[C@@H](CC(C)C)C(=O)N2C[C@H](O)CC2C(=O)N[C@@H](Cc2c[nH]c3ccccc23)C(=O)N[C@@H](CCN)C(=O)N[C@@H](Cc2cn(CC(=O)O)c3ccccc23)C(=O)N1C (stereo partly drawn) [Example 11250] ({CH2CO}-Y[NMeA]NP[Dap]L[ξPro(4R-OH)]W[Dab][Trp(1-CH2COOH)][NMeNle][NMeNle]LCGDD(X12)-OH; thioether N-14) |
| 0.3 to 9.9 nM | CCCC[C@H]1C(=O)N(C)[C@@H](CCCC)C(=O)N[C@@H](CC(C)C)C(=O)N[C@H](C(=O)NCC(=O)N[C@@H](CCC(=O)O)C(=O)NCCCOCCOCCOCCCNC(=O)CC[C@H](NC(=O)CCCCCCCCCCCCC(=O)O)C(=O)O)CSCC(=O)N[C@@H](Cc2ccc(O)cc2)C(=O)N(C)[C@@H](C)C(=O)N[C@@H](CC(N)=O)C(=O)N2CCC[C@H]2C(=O)N[C@@H](CN)C(=O)N[C@@H](CC(C)C)C(=O)N2C[C@H](O)C[C@H]2C(=O)N[C@@H](Cc2c[nH]c3ccccc23)C(=O)N[C@@H](CCN)C(=O)N[C@@H](Cc2cn(CC(=O)O)c3ccccc23)C(=O)N1C [Example 11253] ({CH2CO}-Y[NMeA]NP[Dap]L[Hyp]W[Dab][Trp(1-CH2COOH)][NMeNle][NMeNle]LCGE-X11; thioether N-14) |
| 0.3 to 9.9 nM | CCCC[C@H]1C(=O)N(C)[C@@H](CCCC)C(=O)N[C@@H](CC(C)C)C(=O)N[C@H](C(=O)NCC(=O)N[C@@H](CC(=O)O)C(=O)NCCCOCCOCCOCCCNC(=O)CC[C@H](NC(=O)CCCCCCCCCCCCC(=O)O)C(=O)O)CSCC(=O)N[C@@H](Cc2ccc(O)cc2)C(=O)N(C)[C@@H](C)C(=O)N[C@@H](CC(N)=O)C(=O)N2CCC[C@H]2C(=O)N[C@@H](CN)C(=O)N[C@@H](CC(C)C)C(=O)N2C[C@H](O)C[C@H]2C(=O)N[C@@H](Cc2c[nH]c3ccccc23)C(=O)N[C@@H](CCN)C(=O)N[C@@H](Cc2cn(CC(=O)O)c3ccccc23)C(=O)N1C [Example 11254] ({CH2CO}-Y[NMeA]NP[Dap]L[Hyp]W[Dab][Trp(1-CH2COOH)][NMeNle][NMeNle]LCGD-X11; thioether N-14) |
| 0.3 to 9.9 nM | CCCC[C@H]1C(=O)N(C)[C@@H](CCCC)C(=O)N[C@@H](CC(C)C)C(=O)N[C@H](C(=O)NCC(=O)N[C@@H](CCC(=O)O)C(=O)NCCCOCCOCCOCCCNC(=O)C[C@H](NC(=O)CCCCCCCCCCCCCCCCC(=O)O)C(=O)O)CSCC(=O)N[C@@H](Cc2ccc(O)cc2)C(=O)N(C)[C@@H](C)C(=O)N[C@@H](CC(N)=O)C(=O)N2CCC[C@H]2C(=O)N[C@@H](CN)C(=O)N[C@@H](CC(C)C)C(=O)N2C[C@H](O)C[C@@H]2C(=O)N[C@@H](Cc2c[nH]c3ccccc23)C(=O)N[C@@H](CCN)C(=O)N[C@@H](Cc2cn(CC(=O)O)c3ccccc23)C(=O)N1C [Example 11257] ({CH2CO}-Y[NMeA]NP[Dap]L[d(cisHyp)]W[Dab][Trp(1-CH2COOH)][NMeNle][NMeNle]LCGE-X4; thioether N-14) |
| 0.3 to 9.9 nM | CCCC[C@H]1C(=O)N(C)[C@@H](CCCC)C(=O)N[C@@H](CC(C)C)C(=O)N[C@H](C(=O)NCC(=O)NCCCOCCOCCOCCCNC(=O)CC[C@H](NC(=O)CCCCCCCCCCCCC(=O)O)C(=O)O)CSCC(=O)N[C@@H](Cc2ccc(O)cc2)C(=O)N(C)[C@@H](C)C(=O)N[C@@H](CC(N)=O)C(=O)N2CCC[C@H]2C(=O)N[C@@H](CN)C(=O)N[C@@H](CC(C)C)C(=O)N2C[C@H](O)C[C@H]2C(=O)N[C@@H](Cc2c[nH]c3ccccc23)C(=O)N[C@@H](CCN)C(=O)N[C@@H](Cc2cn(CC(=O)O)c3ccccc23)C(=O)N1C [Example 11260] ({CH2CO}-Y[NMeA]NP[Dap]L[Hyp]W[Dab][Trp(1-CH2COOH)][NMeNle][NMeNle]LCG-X11; thioether N-14) |
| 0.3 to 9.9 nM | CCCC[C@H]1C(=O)N(C)[C@@H](CCCC)C(=O)N[C@@H](CC(C)C)C(=O)N[C@H](C(=O)N[C@@H](CC(=O)O)C(=O)N[C@@H](CCC(=O)NCCCOCCOCCOCCCNC(=O)CC[C@H](NC(=O)CCCCCCCCCCCCC(=O)O)C(=O)O)C(=O)O)CSCC(=O)N[C@@H](Cc2ccc(O)cc2)C(=O)N(C)[C@@H](C)C(=O)N[C@@H](CC(N)=O)C(=O)N2CCC[C@H]2C(=O)N[C@@H](CN)C(=O)N[C@@H](CC(C)C)C(=O)N2C[C@H](O)C[C@H]2C(=O)N[C@@H](Cc2c[nH]c3ccccc23)C(=O)N[C@@H](CCN)C(=O)N[C@@H](Cc2cn(CC(=O)O)c3ccccc23)C(=O)N1C [Example 11261] ({CH2CO}-Y[NMeA]NP[Dap]L[Hyp]W[Dab][Trp(1-CH2COOH)][NMeNle][NMeNle]LCDE(X11)-OH; thioether N-14) |

From US10633419B2, “Immunomodulators” (BRISTOL-MYERS SQUIBB COMPANY, priority 2014, dated 2020)
